According to PubChem BioAssay AID624124 (The Scripps Research Institute Molecular Screening Center, 2012):

Molecular target: Tyrosine-protein kinase ABL1 (Homo sapiens) + Ras and Rab interactor 1 (Homo sapiens) (UniProt P00519+Q13671)
Experiment: inhibitors of Rin1-Abl protein interaction, late-stage follow-up, biochemical, TR-FRET, round 1 (AID 624124)
Settings: TR-FRET Rin1-Abl binding assay

Chain of Tyrosine-protein kinase ABL1 (Homo sapiens) + Ras and Rab interactor 1 (Homo sapiens) (P00519 whole entry, looked up): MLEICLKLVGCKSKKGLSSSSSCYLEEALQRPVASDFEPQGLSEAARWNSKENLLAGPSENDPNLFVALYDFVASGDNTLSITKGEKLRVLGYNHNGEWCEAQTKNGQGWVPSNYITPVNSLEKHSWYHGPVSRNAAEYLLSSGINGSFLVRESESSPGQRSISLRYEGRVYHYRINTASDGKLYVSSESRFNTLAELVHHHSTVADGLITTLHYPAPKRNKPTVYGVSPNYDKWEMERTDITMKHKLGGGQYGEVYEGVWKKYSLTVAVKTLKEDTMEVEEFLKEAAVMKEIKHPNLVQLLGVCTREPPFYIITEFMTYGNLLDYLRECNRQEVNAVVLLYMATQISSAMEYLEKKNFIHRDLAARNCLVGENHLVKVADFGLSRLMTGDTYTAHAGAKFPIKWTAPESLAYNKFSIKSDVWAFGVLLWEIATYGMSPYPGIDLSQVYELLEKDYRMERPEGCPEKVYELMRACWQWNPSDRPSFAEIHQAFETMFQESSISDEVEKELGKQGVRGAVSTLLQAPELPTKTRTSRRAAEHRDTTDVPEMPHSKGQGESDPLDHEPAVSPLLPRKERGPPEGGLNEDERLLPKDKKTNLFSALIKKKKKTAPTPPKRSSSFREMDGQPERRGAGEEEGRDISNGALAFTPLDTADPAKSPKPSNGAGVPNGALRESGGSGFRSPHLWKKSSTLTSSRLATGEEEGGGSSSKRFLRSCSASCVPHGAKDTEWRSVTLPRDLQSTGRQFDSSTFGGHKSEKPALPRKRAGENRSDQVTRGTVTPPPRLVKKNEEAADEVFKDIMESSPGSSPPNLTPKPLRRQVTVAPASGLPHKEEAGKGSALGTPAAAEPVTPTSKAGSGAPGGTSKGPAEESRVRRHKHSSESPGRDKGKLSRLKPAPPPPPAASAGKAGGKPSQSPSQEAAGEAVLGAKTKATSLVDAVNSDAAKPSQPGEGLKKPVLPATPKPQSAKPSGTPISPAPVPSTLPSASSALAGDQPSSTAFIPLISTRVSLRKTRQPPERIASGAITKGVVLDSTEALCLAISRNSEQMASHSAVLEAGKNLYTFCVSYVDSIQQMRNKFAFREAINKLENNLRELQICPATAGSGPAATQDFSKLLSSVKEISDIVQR
Chain of Tyrosine-protein kinase ABL1 (Homo sapiens) + Ras and Rab interactor 1 (Homo sapiens) (Q13671 whole entry, looked up): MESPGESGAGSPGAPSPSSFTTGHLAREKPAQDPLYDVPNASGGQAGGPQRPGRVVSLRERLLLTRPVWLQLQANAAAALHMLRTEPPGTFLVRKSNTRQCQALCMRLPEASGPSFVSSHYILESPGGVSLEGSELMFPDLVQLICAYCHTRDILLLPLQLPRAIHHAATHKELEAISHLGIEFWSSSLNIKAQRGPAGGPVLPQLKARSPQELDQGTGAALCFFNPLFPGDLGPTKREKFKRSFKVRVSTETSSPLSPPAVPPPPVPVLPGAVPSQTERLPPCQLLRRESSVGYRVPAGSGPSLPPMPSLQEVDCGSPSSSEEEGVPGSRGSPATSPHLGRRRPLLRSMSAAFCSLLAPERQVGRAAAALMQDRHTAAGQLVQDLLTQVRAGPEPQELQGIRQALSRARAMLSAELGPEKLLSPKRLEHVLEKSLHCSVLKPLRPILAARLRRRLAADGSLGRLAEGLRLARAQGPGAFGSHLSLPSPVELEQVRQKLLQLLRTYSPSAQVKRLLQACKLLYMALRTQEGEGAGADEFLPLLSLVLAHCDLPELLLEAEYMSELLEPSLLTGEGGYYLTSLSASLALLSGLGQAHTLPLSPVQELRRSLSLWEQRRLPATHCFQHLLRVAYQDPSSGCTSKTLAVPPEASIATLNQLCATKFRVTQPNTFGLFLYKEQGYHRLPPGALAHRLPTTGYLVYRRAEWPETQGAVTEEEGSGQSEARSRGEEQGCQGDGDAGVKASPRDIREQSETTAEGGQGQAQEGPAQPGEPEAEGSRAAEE

SMILES | IC50 [µM]
CN(C(=O)c1ccc(NC(=O)Cc2ccc(NC(=O)C3CCN(C(=O)c4ccccc4)CC3)cc2)cc1)C1CC1 | 0.62
CN(C(=O)c1ccc(NC(=O)Cc2ccc(NC(=O)C3CCN(C(=O)c4ccc(F)cc4)CC3)cc2)cc1)C1CC1 | 1.06
COc1ccc(C(=O)N2CCC(C(=O)Nc3ccc(CC(=O)Nc4ccc(C(=O)N(C)C5CC5)cc4)cc3)CC2)cc1 | 3.67
CN(C(=O)c1ccc(NC(=O)Cc2ccc(NC(=O)C3CCN(C(=O)c4cccc(F)c4)CC3)cc2)cc1)C1CC1 | 1.35
